Assay results as given in US10806747B2, “Methods for treating infection including sepsis via P2X receptor modulation” (Rutgers, The State University of New Jersey, priority 2017, dated 2020).

How the values were obtained:
peritoneal macrophages [1] = experiment: Intracellular killing of E. coli by peritoneal macrophages (gentamicin protection, CFU count); format: cell-based, murine; conditions: for effect on ATP-stimulated E. coli killing: antagonist pretreatment 30 min before 5 min ATP pulse
Protocol: FIGS. 1A through 1K show ATP augments bacterial killing in macrophages in a P2X4R-dependent fashion. […] Peritoneal macrophages from WT and P2X7R^−/− mice were infected with E. coli (FIG. 1A) or with S. aureus (FIG. 1B) for 90 minutes, which was followed by pulsing the cells with ATP for 5 minutes. Subsequently, after a 2-hour incubation with 400 ng/ml gentamicin, the macrophages were lysed and serial dilutions of their intracellular content were spread onto LB agar plates. *P<0.05; **P<0.01 vs. E. coli; n=5-6. FIG. 1C and FIG. 1D show ATP augments bacterial killing independently of adenosine. Macrophages from WT and CD39^−/− mice were infected with E. coli, pulsed with ATP (FIG. 1C) or adenosine (FIG. 1D), and then incubated with gentamicin for 2 hours, which was followed by intracellular CFU counting. *P<0.05; **P<0.01 vs. E. coli; n=4-6. […] Peritoneal macrophages were isolated from WT mice and RNA was extracted from untreated cells. RNA was transcribed and quantitative PCRs were conducted. n=6. FIGS. 1F through 1K show P2X4Rs are responsible for the ATP-stimulated increase in bacterial killing in macrophages. Peritoneal macrophages were infected with E. coli for 90 min, pretreated with (FIG. 1F) P2X4R antagonist (5-BDBD) or (FIG. 1G) P2X7R antagonist (A438079) for 30 minutes before an ATP pulse for 5 minutes, and then incubated with gentamicin for 2 hours. Killing was determined at the end of this incubation period. *P<0.05; ***P<0.001 vs. E. coli treatment; ^##P<0.01 vs. ATP/E. coli treatment; n=5-6. In FIG. 1H, macrophages were transfected with scrambled siRNA- or P2X4 siRNA, and the effect of ATP on bacterial killing determined. **P<0.01 vs. E. coli treatment; n=6. In FIG. 1I, peritoneal macrophages from WT and P2X4R^−/− mice were infected with E. coli, pulsed with ATP, incubated with gentamicin for 2 hours and then bacterial killing was determined. **P<0.01 vs. E. coli treatment; n=6. In FIGS. 1J and 1K, phorbol 12-myristate 13-acetate (PMA)-differentiated human monocytic THP-1 cells were infected with E. coli for 90 minutes, exposed to ATP for 5 minutes and then killing was determined as described above for peritoneal macrophages (FIG. 1J). In other experiments, THP-1 cells were infected with E. coli, pretreated with 5-BDBD or vehicle for 30 minutes before a 5-minutes ATP pulse (FIG. 1K), two hours after which intracellular CFUs were determined. **P<0.01; vs. E. coli treatment; ^##P<0.01 vs. ATP/E. coli treatment. n=6-7. Data are expressed as mean±SEM. All results are representatives of three experiments.
Naive, thioglycollate-elicited murine peritoneal macrophages were treated with E. coli (K-12 strain) at 1:15 cell:bacteria ratio in vitro and incubated for 90 minutes to allow for phagocytosis to occur. After 90 minutes, the cells were washed to remove non-phagocytosed bacteria and treated with increasing concentrations (0.1 to 3 μM) of ATP or adenosine for 5 minutes. After 5 minutes, the medium was removed and the cells were washed extensively.
New medium was added that was supplemented with 100 μg/mL gentamicin. This allowed the maturation of the phagosome and killing of the phagocytosed bacteria. The cells were incubated for approximately 2 hours at 37° C. After incubation, the cells were washed 5 times to remove the gentamicin and were lysed. Colony forming units (CPUs) were determined after an overnight incubation on agar.

[2] = system: sepsis by cecal ligation and puncture (CLP); experiment: CLP sepsis model: survival, bacterial load, plasma BUN; format: in vivo, mice; conditions: for survival: monitored 7 days, vs vehicle
Protocol: WT and P2X4R^−/− mice were injected with 10 mg/kg ivermectin or its vehicle and subjected to CLP. The survival of mice was monitored for 7 days *P<0.05-P2X4R^−/− injected with vehicle (n=21) vs. WT injected with vehicle (n=25); ***P<0.001—WT injected with ivermectin (n=20); vs. WT injected with vehicle (n=25). In FIGS. 3B and 3C bacterial burden was determined by counting the number of CFUs on blood agar plates after serial dilution of blood and peritoneal lavage samples. Blood and lavage fluid were collected at 16 hours after CLP. *P<0.05 vs. veh (veh and 10 mg/kg ivermectin; n=10 and 9, respectively. In FIG. 3D BUN was determined from plasma of ivermectin- or vehicle-treated mice 16 hours after CLP. *P<0.05. Veh and 10 mg/kg ivermectin; n=10 and 9, respectively. FIGS. 3E and 3F show ivermectin increasing intracellular killing of E. coli in cultured macrophages. Peritoneal macrophages were infected with E. coli for 90 minutes and then pulsed with ATP for 5 minutes. ATP was then removed and the macrophages were incubated with ivermectin for 30 minutes. Thereafter the ivermectin was removed and the cells were incubated in medium containing gentamicin for another 2 hours. The cells were then lysed and serial dilutions of intracellular content were spread onto LB agar plates. *P<0.05 (n=5-6); **P<0.01 (n=5-6). Data are expressed as mean±SEM. All results are representatives of three experiments.
From these studies, it was believed that pharmacological activation of P2X4Rs would have an effect opposite to that of inactivating these receptors genetically; that is that the pharmacological activation of P2X4Rs would be protective. To examine this, mice were injected with ivermectin, an anti-helminth drug that is a partial allosteric activator of P2X4Rs (Khakh et al. J Neurosci 1999 19:7289-7299) 90 minutes after performing CLP. […] Furthermore, ivermectin potentiated the ATP stimulation of bacterial killing in macrophages in vitro (FIGS. 3E and 3F).
Male C57B16/J rmce were anesthetized using Nembutal, and a 2-cm midline laparotomy was performed to allow exposure of the cecum with adjoining intestine. Approximately two-thirds of the cecum was tightly ligated with a 3.0 silk suture, and the ligated part of the cecum was perforated twice (through and through) with a 20-gauge needle. […] The mice were resuscitated with 1 ml of physiological saline injected subcutaneously and returned to their cages with free access to food and water, and survival was monitored for 7 days (p<0.05). Survival curves were analyzed using two-tailed Fisher's exact test.
Bacterial load in mice subjected to CLP was measured at 16 h after surgery. Dilutions of blood or peritoneal lavage fluid were cultured on tryptose blood agar plates, and the number of bacterial colonies was counted. […]

peritoneal macrophages [3] = experiment: Intracellular killing of S. aureus by peritoneal macrophages (CFU count); format: cell-based, mice; conditions: WT and P2X7R−/− macrophages; S. aureus 90 min, ATP pulse 5 min
Protocol: (§1) FIGS. 1A through 1K show ATP augments bacterial killing in macrophages in a P2X4R-dependent fashion. […] Peritoneal macrophages from WT and P2X7R^-/- mice were infected with E. coli (FIG. 1A) or with S. aureus (FIG. 1B) for 90 minutes, which was followed by pulsing the cells with ATP for 5 minutes. Subsequently, after a 2-hour incubation with 400 ng/ml gentamicin, the macrophages were lysed and serial dilutions of their intracellular content were spread onto LB agar plates. *P<0.05; **P<0.01 vs. E. coli; n=5-6. FIG. 1C and FIG. 1D show ATP augments bacterial killing independently of adenosine. […] RNA was transcribed and quantitative PCRs were conducted. n=6. […] Killing was determined at the end of this incubation period. *P<0.05; ***P<0.001 vs. E. coli treatment; ^##P<0.01 vs. ATP/E. coli treatment; n=5-6. In FIG. 1H, macrophages were transfected with scrambled siRNA- or P2X4 siRNA, and the effect of ATP on bacterial killing determined. **P<0.01 vs. E. coli treatment; n=6. In FIG. 1I, peritoneal macrophages from WT and P2X4R^-/- mice were infected with E. coli, pulsed with ATP, incubated with gentamicin for 2 hours and then bacterial killing was determined. **P<0.01 vs. E. coli treatment; n=6. […] Data are expressed as mean±SEM. […]

[4] = system: human monocytic THP-1 cells; experiment: Intracellular killing of E. coli by PMA-differentiated THP-1 cells; format: cell-based
Protocol: as §1

[5] = system: murine polymicrobial sepsis; conditions: injected ATP; cited from earlier work

**Q.** For `Clc1cccc(-c2nnnn2Cc2cccnc2)c1Cl` [P2X7R antagonist], which “effect on ATP-stimulated E. coli killing” value (peritoneal macrophages [1]) is on record?
**A.** not P2X7R antagonist (FIG. 1G) prevented the stimulatory effect of ATP

**Q.** Which “ATP stimulation of bacterial killing in macrophages” value (peritoneal macrophages [1]; E. coli 90 min, ATP pulse 5 min, then ivermectin 30 min, gentamicin 2 h) does the source give for 22,23-dihydroavermectin [ivermectin] here?
**A.** potentiated

**Q.** And the “plasma BUN levels” value ([2]; 16 hours after CLP, 10 mg/kg ivermectin vs vehicle)?
**A.** diminished plasma BUN levels

**Q.** And the survival ([2]; P2X4R−/− mice, 10 mg/kg ivermectin, CLP)?
**A.** failed to improve survival

**Q.** And the survival ([2]; WT mice, 10 mg/kg ivermectin 90 minutes after CLP)?
**A.** improved survival

**Q.** What about the “bacterial burden (CFUs)” value ([2]; blood and peritoneal lavage, 16 hours after CLP, 10 mg/kg ivermectin vs vehicle) of the same compound?
**A.** decreased bacteria

**Q.** With `Nc1ncnc2c1ncn2[C@@H]1O[C@H](COP(=O)(O)OP(=O)(O)OP(=O)(O)O)[C@@H](O)[C@H]1O` [ATP, adenosine triphosphate] as the compound, how does the “killing of E. coli” value (peritoneal macrophages [1]; WT and P2X7R−/− macrophages, E. coli 90 min, ATP pulse 5 min, gentamicin 2 h) read?
**A.** increased killing of E. coli

**Q.** And the “killing of E. coli” value (peritoneal macrophages [1]; macrophages from P2X4R−/− mice, ATP pulse)?
**A.** failed to stimulate E. coli killing

**Q.** What about the “killing of E. coli” value (peritoneal macrophages [1]; macrophages from WT littermate controls, ATP pulse) of the same compound?
**A.** dose-dependent increase in killing

**Q.** And the “killing of E. coli” value (peritoneal macrophages [1]; macrophages lacking CD39 (CD39−/−), ATP pulse)?
**A.** also killed E. coli

**Q.** And the “stimulatory effect of ATP on E. coli killing” value (peritoneal macrophages [1]; macrophages with P2X4R silencing vs scrambled control)?
**A.** largely reversed

**Q.** What about the “intracellular bacterial killing (S. aureus)” value (peritoneal macrophages [3]) of the same compound?
**A.** increases intracellular bacterial killing

**Q.** And the “killing of E. coli” value ([4]; ATP 5 min)?
**A.** increased killing of E. coli

**Q.** What about the macrophage-mediated bacterial killing [5] of the same compound?
**A.** augments macrophage-mediated bacterial killing

**Q.** For `Nc1ncnc2c1ncn2[C@@H]1O[C@H](CO)[C@@H](O)[C@H]1O` [adenosine], which “killing of E. coli” value (peritoneal macrophages [1]; macrophages from WT and CD39−/− mice, adenosine pulse) is on record?
**A.** failed to increase E. coli killing

**Q.** Which results are given for `O=C1CN=C(c2cccc(Br)c2)c2oc3ccccc3c2N1` [P2X4R antagonist]?
**A.** effect on ATP-stimulated E. coli killing (peritoneal macrophages [1]): prevented the stimulatory effect of ATP on E. coli killing; effect on ATP-stimulated E. coli killing ([4]; antagonist 30 min before 5 min ATP pulse): inhibited the stimulatory effect of ATP on E. coli killing
